These results are taken from patent publication US20260365696A1, “INHIBITORS OF PTP1B / NCK1 INTERACTION AND METHODS OF MAKING AND USING SAME” (Radella Pharmaceuticals LLC, priority 2023, published 2026).

The subject of one series is db/db mice. In words: db/db genetic mouse model of diabetes and obesity. It is filed as in vivo. The source says: Animals: All animals were housed and tested following European (Directive on the Protection of Animals used for Scientific Purposes, 2010/63/EU) and UK Home Office regulations. Experiments were approved by the University Ethics Board and carried out in accordance with the Animal (Scientific Procedures) Act 1986 and following ARRIVE guidelines. Db/db male mice (~4 weeks old) were purchased from Jackson, USA. All mice received standard mouse chow diet and had ad libitum access to food and water and were kept in a 12 h light/dark cycle.
Treatments: Mice were assigned and counterbalanced according to their body weights in to the following groups: control PBS (n=10); MD18 at 15 mg/kg (n=7), 30 mg/kg (n=8), or 45 mg/kg (n=7); or MD20 at 15 mg/kg (n=9), 30 mg/kg (n=10) or 45 mg/kg (n=7). MD18 and MD20 were administered once daily via subcutaneous (SC) injection for 41 days, whereas control mice received a daily SC injection of vehicle (PBS). MD18 and MD20 were kept in −20 °C and dissolved in sterile phosphate buffered saline (PBS).
Body weights and body mass composition: Body weights were recorded twice weekly during the study, and fat mass and lean mass composition was analysed using an EchoMRI scanner (EchoMedical Systems, Houston, TX, U.S.A.).
Metabolic measurements: All animals were five-hour fasted before obtaining basal glucose measurements and GTT, ITT, and corresponding treatments were administered 1 hour before glucose measurements. Tail blood glucose was measured using AlphaTRAK 2 glucose strips and glucometer (Abbot, UK), or blood was collected and glucose assay (AB65333, Abcam) was performed where readings were too high to be recorded via glucometer. Human Actrapid Insulin (NovaNordisk) at 1 IU/kg dose was administered during ITT.
Serum and liver assays: Trunk-derived blood was collected from 5 h-fasted mice into serum separator microtubes and kept at −80 °C. Serum was used for insulin (#EZRMI-13K, Merck) and leptin (#90030, Crystal Chem) analyses.
(§1) Statistical analyses: Data were reported as means±SEM and analysed using one- or two-way ANOVA with Bonferroni post hoc tests, as appropriate. GraphPad Prism (V8, GraphPad Software, Inc., San Diego, California, USA) was used for statistical analyses. P-values <0.05 were considered significant.

The next series deals with HFD-fed mice. The series is described as follows: High-fat diet-induced obesity and type 2 diabetes model. The format is in vivo, mouse. The settings on record: 30 mg/kg IP daily, 7 weeks.
From the text: Animals: All animals were housed and tested following European (Directive on the Protection of Animals used for Scientific Purposes, 2010/63/EU) and UK Home Office regulations. Experiments were approved by the University Ethics Board and carried out in accordance with the Animal (Scientific Procedures) Act 1986 and following ARRIVE guidelines. C57BL/6 male mice (~3-4 months) were purchased from Charles River, UK. All mice received high fat and cholesterol diet (42% fat plus 0.2% cholesterol, #TD.88137, Envigo, US) to induce experimental type 2 diabetes and obesity phenotype. All mice had ad libitum access to food and water and were kept in a 12 h light/dark cycle.
Briefly, after 8 weeks of high fat/high cholesterol diet feeding, mice were counterbalanced according to their body weight in to control (n=10) or MD20 30 mg/kg (n=10) groups. MD20 compound (30 mg/kg) was administered once daily via intraperitoneal (IP) injection for 7 weeks, whereas control mice received daily IP injection of vehicle (PBS). MD20 was kept at −20 °C and dissolved in sterile phosphate buffered saline (PBS) freshly every day before the injection. Three mice died during the study, and the final number of animals was: control (n=9) and MD20 30 mg/kg (n=8).
Bodyweights and body mass composition: Bodyweights were recorded during the study. Fat mass and lean mass composition were analysed using an EchoMRI scanner (EchoMedical Systems, Houston, TX, U.S.A.).
Metabolic measurements: All animals were 5 h-fasted before metabolic testing. Tail blood glucose was measured using AlphaTRAK 2 glucose strips and glucometer (Abbot, UK). Glucose tolerance tests (GTT) and insulin tolerance tests (ITT) were performed by IP injection of 2 mg/g of glucose (GTT) or 0.6 mU/g insulin (ITT), and glucose levels were measured at 15, 30, 60 and 90 min post-injection.
Serum and liver assays: Trunk-derived blood was collected from 5 h-fasted mice into serum separator microtubes and kept at −80 °C. Serum was used for insulin (#EZRMI-13K, Merck), leptin (#90030, Crystal Chem), free fatty acids (FFA; #mak044, Sigma-Aldrich), cholesterol (#MAK043, Sigma Aldrich), alanine, and aspartate aminotransferase (ALT and AST; ab105134 and ab105135, Abcam) analyses. Serum and liver triglycerides were determined using triglyceride reagents (#T2449, #F6428, #G7793, Sigma Aldrich).
as §1

Turning to Ac-PRPPKR-NH2 [MD20, Ac-PRPPKR-NH2], in the series with db/db mice (15 mg/kg SC daily, about 6 weeks, vs control), the fasted insulin levels result is given as “significant decrease in insulin levels”. The leptin levels entry in the series with db/db mice (30 mg/kg SC daily, about 6 weeks, vs control) was “significant decrease in leptin levels”. Further, in the series with db/db mice (5-hour-fasted, SC daily, vs vehicle), the basal glucose levels entry is on record as “No significant differences”. Moreover, the body weight gain result with db/db mice (15, 30 or 45 mg/kg SC daily, significant overall interaction) was “inhibited body weight gain”. In the series on db/db mice (SC daily, week 4, vs control, all doses), the “glucose clearance during GTT” value is on record as “No significant differences in glucose clearance”. Besides, in the series with db/db mice (SC daily, week 6, 1 IU/kg insulin, vs control), the “insulin tolerance test (ITT)” value is “did not detect any significant differences”. Also, in the series on HFD-fed mice, the “fasted basal glucose levels” value is recorded as “No significant differences”, the fasted serum cholesterol entry is reported as “No significant differences”, the “fasted serum free fatty acids” value is reported as “No significant differences” and the fasted serum insulin result is given as “No significant differences”. Also, in the series with HFD-fed mice, the fasted serum leptin entry is “No significant differences”, the hepatic toxicity result is “most likely did not induce hepatic toxicity”, the liver triglycerides entry is listed as “No significant differences” and the “serum ALT” value was “No significant differences”. In the series with HFD-fed mice, the “serum AST” value is recorded as “No significant differences” and the serum triglycerides entry is on record as “No significant differences”. Further, in the series on HFD-fed mice (vs control), the body weight gain result is recorded as “inhibited body weight gain” and the fat mass gain entry was “inhibited fat mass gain”. For the same substance, the “glucose tolerance test (GTT)” value in the series on HFD-fed mice (2 mg/g glucose) was “No significant differences”. The “insulin sensitivity during ITT” value in the series on HFD-fed mice (0.6 mU/g insulin) is “improved insulin sensitivity during ITT”.
